From US5541175A, “Cephalosporin antibiotics” (Lucky, Ltd., priority 1993, dated 1996)
In brackets after ≈: the same amount, converted by molar mass.

How the values were obtained:
Assay in all cases: Minimum inhibitory concentration (agar 2-fold dilution)
Assay type in all cases: cell-based
[1] = system: Acinetobacter calcoaceticus 15473A; conditions: A. calcoaceticus 15473A, Muller-Hinton agar, 37° C., 20 hours, read-out: Minimum Inhibitory Concentration
Procedure: (§1) The minimum inhibitory concentration was determined by diluting the test compounds according to 2-fold dilution, suspending them in Muller-Hinton agar medium, inoculating 2 μl of the suspension containing the test strains having 10^7 CFU (Colony Forming Unit) per 1 ml into the medium and then culturing the test strains at 37° C. for 20 hours.

[2] = system: Citrobacter diversus 2046E; conditions: Citrobacter koseri; C. diversus 2046E; Muller-Hinton agar, 37° C., 20 hours; read-out: Minimum Inhibitory Concentration
Procedure: as §1

[3] = system: Enterobacter cloacae IND + VE 1194E; conditions: E. cloacae IND + VE 1194E, Muller-Hinton agar, 37° C., 20 hours, read-out: Minimum Inhibitory Concentration
Procedure: as §1

Enterobacter cloacae P99 = conditions: P99, 20 h, read-out: Minimum Inhibitory Concentration
Procedure: as §1

Escherichia coli 10536 = conditions: Escherichia coli; E. coli 10536; Muller-Hinton agar, 37° C., 20 hours; read-out: Minimum Inhibitory Concentration
Procedure: as §1

Escherichia coli 3190Y = conditions: E. coli 3190Y, Muller-Hinton agar, 37° C., 20 hours, read-out: Minimum Inhibitory Concentration
Procedure: as §1

Escherichia coli 851E = conditions: E. coli 851E, Muller-Hinton agar, 37° C., 20 hours
Procedure: as §1

[4] = system: Escherichia coli TEM1 1193E; conditions: TEM11193E, 20 h, read-out: Minimum Inhibitory Concentration
Procedure: as §1

[5] = system: Escherichia coli TEM3 3455E; conditions: TEM33455E, 20 h, read-out: Minimum Inhibitory Concentration
Procedure: as §1

[6] = system: Escherichia coli TEM5 3739E; conditions: TEM53739E, 20 h, read-out: Minimum Inhibitory Concentration
Procedure: as §1

[7] = system: Escherichia coli TEM7 3457E; conditions: TEM73457E, 20 h, read-out: Minimum Inhibitory Concentration
Procedure: as §1

[8] = system: Escherichia coli TEM9 2639E; conditions: TEM92639E, 20 h, read-out: Minimum Inhibitory Concentration
Procedure: as §1

[9] = system: Klebsiella aerogenes K1 + 1082E; conditions: 20 h, read-out: Minimum Inhibitory Concentration
Procedure: as §1

[10] = system: Klebsiella aerogenes SHV-1 1976E; conditions: SHV11976E, K. aerogenes SHV-1 1976E, Muller-Hinton agar, 37° C., 20 hours
Procedure: as §1

Proteus vulgaris 6059A = conditions: P. vulgaris 6059A, Muller-Hinton agar, 37° C., 20 hours, read-out: Minimum Inhibitory Concentration
Procedure: as §1

[11] = system: Pseudomonas aeruginosa 10145; conditions: Pseudomonas aeruginosa; P. aeruginosa 10145; Muller-Hinton agar, 37° C., 20 hours; read-out: Minimum Inhibitory Concentration
Procedure: as §1

[12] = system: Pseudomonas aeruginosa 1912E; conditions: P. aeruginosa 1912E, Muller-Hinton agar, 37° C., 20 hours, read-out: Minimum Inhibitory Concentration
Procedure: as §1

[13] = system: Pseudomonas aeruginosa 6065; conditions: Pseudomonas aeruginosa; P. aeruginosa 6065; Muller-Hinton agar, 37° C., 20 hours; read-out: Minimum Inhibitory Concentration
Procedure: as §1

[14] = system: Salmonella typhimurium 14028A; conditions: Salmonella enterica; S. typhimurium 14028A; Muller-Hinton agar, 37° C., 20 hours; read-out: Minimum Inhibitory Concentration
Procedure: as §1

[15] = system: Serratia marcescens 1826E; conditions: S. marcescens 1826E, Muller-Hinton agar, 37° C., 20 hours, read-out: Minimum Inhibitory Concentration
Procedure: as §1

[16] = system: Staphylococcus aureus 241; conditions: Staphylococcus aureus; S. aureus 241; Muller-Hinton agar, 37° C., 20 hours; read-out: Minimum Inhibitory Concentration
Procedure: as §1

[17] = system: Staphylococcus aureus 6538P; conditions: S. aureus 6538P, Muller-Hinton agar, 37° C., 20 hours, read-out: Minimum Inhibitory Concentration
Procedure: as §1

Staphylococcus aureus 77 = conditions: Staphylococcus aureus; S. aureus 77; Muller-Hinton agar, 37° C., 20 hours; read-out: Minimum Inhibitory Concentration
Procedure: as §1

[18] = system: Staphylococcus aureus epidermidis 887E; conditions: S. aureus epidermidis 887E, Muller-Hinton agar, 37° C., 20 hours, read-out: Minimum Inhibitory Concentration
Procedure: as §1

[19] = system: Staphylococcus aureus giorgio; conditions: S. aureus giorgio, Muller-Hinton agar, 37° C., 20 hours, read-out: Minimum Inhibitory Concentration
Procedure: as §1

[20] = system: Streptococcus faecalis 29212A; conditions: Enterococcus faecalis; S. faecalis 29212A; Muller-Hinton agar, 37° C., 20 hours; read-out: Minimum Inhibitory Concentration
Procedure: as §1

Compound | MIC [1] | MIC [2] | MIC [3] | MIC (Enterobacter cloacae P99) | MIC (Escherichia coli 10536) | MIC (Escherichia coli 3190Y) | MIC (Escherichia coli 851E) | MIC [4] | MIC [5] | MIC [6] | MIC [7] | MIC [8] | MIC [9] | MIC [10] | MIC (Proteus vulgaris 6059A) | MIC [11] | MIC [12] | MIC [13] | MIC [14] | MIC [15] | also measured
Nc1cc[n+](C/C=C/C2=C(C(=O)[O-])N3C(=O)[C@@H](NC(=O)/C(=N\O[C@@H](C(=O)O)c4ccc(O)c(O)c4)c4csc(N)n4)[C@H]3SC2)cn1 [Compound I-2b, 7-[(Z)-2-(2-aminothiazol-4-yl)-2-(α-carboxy-3,4-dihydroxybenzyloxyimino)acetamido]-3-[(E)-3-(4-aminopyrimidinium-1-yl)-1-propen-1-yl]-3-cephem-4-carboxylate] | 2 µg/mL (≈ 2.99 µM) | 4 µg/mL (≈ 5.98 µM) | 16 µg/mL | 32 µg/mL (≈ 47.9 µM) | 0.13 µg/mL (≈ 0.194 µM) | 0.13 µg/mL (≈ 0.194 µM) | 0.13 µg/mL (≈ 0.194 µM) | 0.25 µg/mL (≈ 0.374 µM) | 0.25 µg/mL (≈ 0.374 µM) | 0.1 µg/mL (≈ 0.15 µM) | 0.25 µg/mL (≈ 0.374 µM) | 0.5 µg/mL (≈ 0.748 µM) | 2 µg/mL (≈ 2.99 µM) | 1 µg/mL (≈ 1.5 µM) | 0.5 µg/mL (≈ 0.748 µM) | 8 µg/mL (≈ 12 µM) | 8 µg/mL (≈ 12 µM) | 64 µg/mL (≈ 95.7 µM) | 0.25 µg/mL (≈ 0.374 µM) | 1 µg/mL (≈ 1.5 µM) | MIC [16]: 128 µg/mL (≈ 191 µM); MIC [17]: 0.5 µg/mL (≈ 0.748 µM); MIC (Staphylococcus aureus 77): 2 µg/mL (≈ 2.99 µM); MIC [18]: 8 µg/mL (≈ 12 µM); MIC [19]: 0.25 µg/mL (≈ 0.374 µM); MIC [20]: 4 µg/mL (≈ 5.98 µM)
Nc1nc(/C(=N/O[C@@H](C(=O)O)c2ccc(O)c(O)c2)C(=O)N[C@@H]2C(=O)N3C(C(=O)[O-])=C(/C=C/C[n+]4cnc(N)c5c4CCC5)CS[C@H]23)cs1 [Compound I-3b, 7-[(Z)-2-(2-aminothiazol-4-yl)-2-(α-carboxy-3,4-dihydroxybenzyloxyimino)acetamido]-3-[(E)-3-(4-amino-5,6-cyclopentanopyrimidinium-1-yl)-1-propen-1-yl]-3-cephem-4-carboxylate] | 4 µg/mL (≈ 5.64 µM) | 4 µg/mL (≈ 5.64 µM) | 32 µg/mL | 64 µg/mL (≈ 90.3 µM) | 0.13 µg/mL (≈ 0.183 µM) | 0.25 µg/mL (≈ 0.353 µM) | 0.25 µg/mL (≈ 0.353 µM) | 0.25 µg/mL (≈ 0.353 µM) | 0.5 µg/mL (≈ 0.705 µM) | 2 µg/mL (≈ 2.82 µM) | 0.5 µg/mL (≈ 0.705 µM) | 2 µg/mL (≈ 2.82 µM) | 1 µg/mL (≈ 1.41 µM) | 1 µg/mL (≈ 1.41 µM) | 1 µg/mL (≈ 1.41 µM) | 8 µg/mL (≈ 11.3 µM) | 8 µg/mL (≈ 11.3 µM) | 64 µg/mL (≈ 90.3 µM) | 0.13 µg/mL (≈ 0.183 µM) | 4 µg/mL (≈ 5.64 µM) | MIC [16]: > 128 µg/mL; MIC [17]: 0.5 µg/mL (≈ 0.705 µM); MIC (Staphylococcus aureus 77): 4 µg/mL (≈ 5.64 µM); MIC [18]: 64 µg/mL (≈ 90.3 µM); MIC [19]: 0.5 µg/mL (≈ 0.705 µM); MIC [20]: 8 µg/mL (≈ 11.3 µM)
Cc1c(N)nc[n+](C/C=C/C2=C(C(=O)[O-])N3C(=O)[C@@H](NC(=O)/C(=N\O[C@@H](C(=O)O)c4ccc(O)c(O)c4)c4csc(N)n4)[C@H]3SC2)c1N [Compound I-4b, 7-[(Z)-2-(2-aminothiazol-4-yl)-2-(α-carboxy-3,4-dihydroxybenzyloxyimino)acetamido]-3-[(E)-3-(4,6-diamino-5-methylpyrimidinium-1-yl)-1-propen-1-yl]-3-cephem-4-carboxylate] | 4 µg/mL (≈ 5.73 µM) | 4 µg/mL (≈ 5.73 µM) | 8 µg/mL | 16 µg/mL (≈ 22.9 µM) | 0.13 µg/mL (≈ 0.186 µM) | 0.13 µg/mL (≈ 0.186 µM) | 0.13 µg/mL (≈ 0.186 µM) | 0.25 µg/mL (≈ 0.358 µM) | 0.5 µg/mL (≈ 0.717 µM) | 1 µg/mL (≈ 1.43 µM) | 0.25 µg/mL (≈ 0.358 µM) | 1 µg/mL (≈ 1.43 µM) | 2 µg/mL (≈ 2.87 µM) | 1 µg/mL (≈ 1.43 µM) | 1 µg/mL (≈ 1.43 µM) | 4 µg/mL (≈ 5.73 µM) | 8 µg/mL (≈ 11.5 µM) | 16 µg/mL (≈ 22.9 µM) | 0.13 µg/mL (≈ 0.186 µM) | 2 µg/mL (≈ 2.87 µM) | MIC [16]: 128 µg/mL (≈ 183 µM); MIC [17]: 0.5 µg/mL (≈ 0.717 µM); MIC (Staphylococcus aureus 77): 2 µg/mL (≈ 2.87 µM); MIC [18]: 32 µg/mL (≈ 45.9 µM); MIC [19]: 0.5 µg/mL (≈ 0.717 µM); MIC [20]: 8 µg/mL (≈ 11.5 µM)
